Data as given in BigSolDB 2.1.

**Q.** For N#CCC(N)=O, which solubility (mole fraction) (in ethanol, 283.15 K) is on record?
**A.** Its solubility (mole fraction) is 0.00653.

**Q.** What about the solubility (mole fraction) (in ethanol, 288.15 K) of the same compound?
**A.** The solubility (mole fraction) was 0.00898.

**Q.** And the solubility (mole fraction) (in ethanol, 293.15 K)?
**A.** Its solubility (mole fraction) is 0.0107.

**Q.** And the solubility (mole fraction) (in ethanol, 298.15 K)?
**A.** The solubility (mole fraction) was 0.0129.

**Q.** What about the solubility (mole fraction) (in ethanol, 303.15 K) of the same compound?
**A.** The solubility (mole fraction) was 0.0157.

**Q.** And the solubility (mole fraction) (in ethanol, 308.15 K)?
**A.** The solubility (mole fraction) was 0.0188.

**Q.** And the solubility (mole fraction) (in ethanol, 313.15 K)?
**A.** Its solubility (mole fraction) is 0.0233.

**Q.** And the solubility (mole fraction) (in ethanol, 318.15 K)?
**A.** The solubility (mole fraction) was 0.0281.

**Q.** What about the solubility (mole fraction) (in ethanol, 323.15 K) of the same compound?
**A.** The solubility (mole fraction) was 0.0362.

**Q.** What about the solubility (mole fraction) (in isopropanol, 283.15 K) of the same compound?
**A.** The solubility (mole fraction) was 0.00409.

**Q.** What about the solubility (mole fraction) (in isopropanol, 288.15 K) of the same compound?
**A.** The solubility (mole fraction) was 0.00548.

**Q.** What about the solubility (mole fraction) (in isopropanol, 293.15 K) of the same compound?
**A.** The solubility (mole fraction) was 0.00648.

**Q.** And the solubility (mole fraction) (in isopropanol, 298.15 K)?
**A.** Its solubility (mole fraction) is 0.00816.

**Q.** What about the solubility (mole fraction) (in isopropanol, 303.15 K) of the same compound?
**A.** The solubility (mole fraction) was 0.0103.

**Q.** What about the solubility (mole fraction) (in isopropanol, 308.15 K) of the same compound?
**A.** Its solubility (mole fraction) is 0.0135.

**Q.** And the solubility (mole fraction) (in isopropanol, 313.15 K)?
**A.** The solubility (mole fraction) was 0.0168.

**Q.** What about the solubility (mole fraction) (in isopropanol, 318.15 K) of the same compound?
**A.** Its solubility (mole fraction) is 0.0197.

**Q.** What about the solubility (mole fraction) (in isopropanol, 323.15 K) of the same compound?
**A.** The solubility (mole fraction) was 0.024.

**Q.** What about the solubility (mole fraction) (in methanol, 283.15 K) of the same compound?
**A.** The solubility (mole fraction) was 0.0186.

**Q.** And the solubility (mole fraction) (in methanol, 288.15 K)?
**A.** The solubility (mole fraction) was 0.0227.

**Q.** What about the solubility (mole fraction) (in methanol, 293.15 K) of the same compound?
**A.** Its solubility (mole fraction) is 0.0273.

**Q.** What about the solubility (mole fraction) (in methanol, 298.15 K) of the same compound?
**A.** Its solubility (mole fraction) is 0.0332.

**Q.** What about the solubility (mole fraction) (in methanol, 303.15 K) of the same compound?
**A.** Its solubility (mole fraction) is 0.0401.

**Q.** And the solubility (mole fraction) (in methanol, 308.15 K)?
**A.** The solubility (mole fraction) was 0.048.

**Q.** And the solubility (mole fraction) (in methanol, 313.15 K)?
**A.** The solubility (mole fraction) was 0.0565.

**Q.** What about the solubility (mole fraction) (in methanol, 318.15 K) of the same compound?
**A.** Its solubility (mole fraction) is 0.0684.

**Q.** What about the solubility (mole fraction) (in methanol, 323.15 K) of the same compound?
**A.** The solubility (mole fraction) was 0.08.

**Q.** What about the solubility (mole fraction) (in n-propanol, 283.15 K) of the same compound?
**A.** The solubility (mole fraction) was 0.00345.

**Q.** And the solubility (mole fraction) (in n-propanol, 288.15 K)?
**A.** Its solubility (mole fraction) is 0.00421.

**Q.** What about the solubility (mole fraction) (in n-propanol, 293.15 K) of the same compound?
**A.** The solubility (mole fraction) was 0.00565.

**Q.** And the solubility (mole fraction) (in n-propanol, 298.15 K)?
**A.** The solubility (mole fraction) was 0.0072.

**Q.** And the solubility (mole fraction) (in n-propanol, 303.15 K)?
**A.** The solubility (mole fraction) was 0.0091.

**Q.** And the solubility (mole fraction) (in n-propanol, 308.15 K)?
**A.** Its solubility (mole fraction) is 0.0115.

**Q.** And the solubility (mole fraction) (in n-propanol, 313.15 K)?
**A.** The solubility (mole fraction) was 0.0146.

**Q.** What about the solubility (mole fraction) (in n-propanol, 318.15 K) of the same compound?
**A.** The solubility (mole fraction) was 0.0181.

**Q.** What about the solubility (mole fraction) (in n-propanol, 323.15 K) of the same compound?
**A.** The solubility (mole fraction) was 0.0229.

**Q.** What about the solubility (mole fraction) (in water, 283.15 K) of the same compound?
**A.** Its solubility (mole fraction) is 0.0171.

**Q.** And the solubility (mole fraction) (in water, 288.15 K)?
**A.** Its solubility (mole fraction) is 0.0221.

**Q.** What about the solubility (mole fraction) (in water, 293.15 K) of the same compound?
**A.** Its solubility (mole fraction) is 0.0304.

**Q.** What about the solubility (mole fraction) (in water, 298.15 K) of the same compound?
**A.** Its solubility (mole fraction) is 0.039.

**Q.** What about the solubility (mole fraction) (in water, 303.15 K) of the same compound?
**A.** Its solubility (mole fraction) is 0.0505.

**Q.** What about the solubility (mole fraction) (in water, 308.15 K) of the same compound?
**A.** The solubility (mole fraction) was 0.0651.

**Q.** And the solubility (mole fraction) (in water, 313.15 K)?
**A.** Its solubility (mole fraction) is 0.086.

**Q.** And the solubility (mole fraction) (in water, 318.15 K)?
**A.** Its solubility (mole fraction) is 0.11.

**Q.** And the solubility (mole fraction) (in water, 323.15 K)?
**A.** Its solubility (mole fraction) is 0.131.
